Test results reported in ChEMBL document CHEMBL4823254, “Tetrahydroquinoline-Capped Histone Deacetylase 6 Inhibitor SW-101 Ameliorates Pathological Phenotypes in a Charcot-Marie-Tooth Type 2A Mouse Model” (J Med Chem, 2021).

Key:
Histone deacetylase 1 = Histone deacetylase 1 (Homo sapiens, UniProt Q13547); test: Inhibition of full length recombinant C-terminal FLAG-His-tagged human HDAC1 expressed in baculovirus infected Sf21 insect cells using RHK-K(Ac)-AMC peptide as substrate measured after 60 mins by fluorimetry analysis
Homo sapiens = species on record: Homo sapiens; test: Selectivity index, ratio of IC50 for full length recombinant C-terminal FLAG-His-tagged human HDAC1 expressed in baculovirus infected Sf21 insect cells using RHK-K(Ac)-AMC peptide as substrate measured after 60 mins by fluorimetry analysis to IC50 for full length recombinant N-terminal GST-tagged …
Description: Selectivity index, ratio of IC50 for full length recombinant C-terminal FLAG-His-tagged human HDAC1 expressed in baculovirus infected Sf21 insect cells using RHK-K(Ac)-AMC peptide as substrate measured after 60 mins by fluorimetry analysis to IC50 for full length recombinant N-terminal GST-tagged human HDAC6 expressed in baculovirus infected Sf9 insect cells using RHK-K(Ac)-AMC peptide as substrate measured after 90 mins by fluorimetry analysis

[1] = Stability in CD1 mouse pooled liver microsomes assessed as parent compound remaining measured at 60 mins in presence of NADPH by LC-MS/MS analysis; assay type: ADME, Microsome; conditions: CD1, mouse, pooled liver microsomes, read-out: Stabilty
[2] = Half life in CD1 mouse pooled liver microsomes assessed as parent compound remaining measured up to 60 mins in presence of NADPH by LC-MS/MS analysis; assay type: ADME, Microsome; conditions: CD1, mouse, pooled liver microsomes
[3] = Stability in human pooled liver microsomes assessed as parent compound remaining measured at 60 mins in presence of NADPH by LC-MS/MS analysis; assay type: ADME, Microsome
[4] = Half life in human pooled liver microsomes assessed as parent compound remaining measured up to 60 mins in presence of NADPH by LC-MS/MS analysis; assay type: ADME, Microsome
[5] = target: T1, Protein deacetylase HDAC6 (Homo sapiens, UniProt Q9UBN7); test: biochemical
T1 sequence (Q9UBN7 whole entry): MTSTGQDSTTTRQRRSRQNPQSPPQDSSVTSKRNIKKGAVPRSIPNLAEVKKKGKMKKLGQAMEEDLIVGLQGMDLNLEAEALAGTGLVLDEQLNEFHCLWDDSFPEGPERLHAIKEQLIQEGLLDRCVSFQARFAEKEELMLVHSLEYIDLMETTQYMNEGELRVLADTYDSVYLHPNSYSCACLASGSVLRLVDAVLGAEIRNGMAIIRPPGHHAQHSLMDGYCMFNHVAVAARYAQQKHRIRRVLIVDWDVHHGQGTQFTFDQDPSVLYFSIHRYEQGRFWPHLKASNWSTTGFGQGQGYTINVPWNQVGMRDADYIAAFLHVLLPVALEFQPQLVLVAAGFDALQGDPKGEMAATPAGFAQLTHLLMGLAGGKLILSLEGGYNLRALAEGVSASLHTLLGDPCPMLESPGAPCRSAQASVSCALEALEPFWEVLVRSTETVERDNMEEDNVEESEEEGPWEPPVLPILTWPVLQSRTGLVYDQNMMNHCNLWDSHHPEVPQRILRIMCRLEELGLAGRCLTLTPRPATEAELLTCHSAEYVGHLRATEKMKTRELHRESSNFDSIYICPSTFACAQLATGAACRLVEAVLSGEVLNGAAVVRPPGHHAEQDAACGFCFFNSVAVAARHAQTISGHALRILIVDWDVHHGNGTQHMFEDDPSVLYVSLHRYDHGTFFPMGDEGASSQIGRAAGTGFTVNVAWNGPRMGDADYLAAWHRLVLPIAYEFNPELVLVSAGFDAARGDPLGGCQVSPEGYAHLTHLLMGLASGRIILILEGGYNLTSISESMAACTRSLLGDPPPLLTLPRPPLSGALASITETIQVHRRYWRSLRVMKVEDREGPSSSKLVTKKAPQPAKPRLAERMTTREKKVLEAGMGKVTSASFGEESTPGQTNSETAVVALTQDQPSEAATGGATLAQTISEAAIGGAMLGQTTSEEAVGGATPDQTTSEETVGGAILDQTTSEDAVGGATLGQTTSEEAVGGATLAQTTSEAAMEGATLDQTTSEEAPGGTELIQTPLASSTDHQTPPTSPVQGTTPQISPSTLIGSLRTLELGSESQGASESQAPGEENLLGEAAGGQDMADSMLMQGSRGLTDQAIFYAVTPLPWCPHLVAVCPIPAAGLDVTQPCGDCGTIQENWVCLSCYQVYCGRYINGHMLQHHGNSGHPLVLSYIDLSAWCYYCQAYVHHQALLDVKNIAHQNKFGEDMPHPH
Description: Inhibition of full length recombinant N-terminal GST-tagged human HDAC6 expressed in baculovirus infected Sf9 insect cells using RHK-K(Ac)-AMC peptide as substrate measured after 90 mins by fluorimetry analysis

[6] = target: T2, Protein deacetylase HDAC6 (Mus musculus) (UniProt Q9Z2V5); test: Inhibition of HDAC6 in mouse Neuro2a cells assessed as fold increase in ratio of acetylated alpha-tubulin to alpha tubulin at 1 uM incubated for overnight by Western blot analysis; assay type: cell-based; conditions: time 12.0 hrs
T2 sequence (whole entry): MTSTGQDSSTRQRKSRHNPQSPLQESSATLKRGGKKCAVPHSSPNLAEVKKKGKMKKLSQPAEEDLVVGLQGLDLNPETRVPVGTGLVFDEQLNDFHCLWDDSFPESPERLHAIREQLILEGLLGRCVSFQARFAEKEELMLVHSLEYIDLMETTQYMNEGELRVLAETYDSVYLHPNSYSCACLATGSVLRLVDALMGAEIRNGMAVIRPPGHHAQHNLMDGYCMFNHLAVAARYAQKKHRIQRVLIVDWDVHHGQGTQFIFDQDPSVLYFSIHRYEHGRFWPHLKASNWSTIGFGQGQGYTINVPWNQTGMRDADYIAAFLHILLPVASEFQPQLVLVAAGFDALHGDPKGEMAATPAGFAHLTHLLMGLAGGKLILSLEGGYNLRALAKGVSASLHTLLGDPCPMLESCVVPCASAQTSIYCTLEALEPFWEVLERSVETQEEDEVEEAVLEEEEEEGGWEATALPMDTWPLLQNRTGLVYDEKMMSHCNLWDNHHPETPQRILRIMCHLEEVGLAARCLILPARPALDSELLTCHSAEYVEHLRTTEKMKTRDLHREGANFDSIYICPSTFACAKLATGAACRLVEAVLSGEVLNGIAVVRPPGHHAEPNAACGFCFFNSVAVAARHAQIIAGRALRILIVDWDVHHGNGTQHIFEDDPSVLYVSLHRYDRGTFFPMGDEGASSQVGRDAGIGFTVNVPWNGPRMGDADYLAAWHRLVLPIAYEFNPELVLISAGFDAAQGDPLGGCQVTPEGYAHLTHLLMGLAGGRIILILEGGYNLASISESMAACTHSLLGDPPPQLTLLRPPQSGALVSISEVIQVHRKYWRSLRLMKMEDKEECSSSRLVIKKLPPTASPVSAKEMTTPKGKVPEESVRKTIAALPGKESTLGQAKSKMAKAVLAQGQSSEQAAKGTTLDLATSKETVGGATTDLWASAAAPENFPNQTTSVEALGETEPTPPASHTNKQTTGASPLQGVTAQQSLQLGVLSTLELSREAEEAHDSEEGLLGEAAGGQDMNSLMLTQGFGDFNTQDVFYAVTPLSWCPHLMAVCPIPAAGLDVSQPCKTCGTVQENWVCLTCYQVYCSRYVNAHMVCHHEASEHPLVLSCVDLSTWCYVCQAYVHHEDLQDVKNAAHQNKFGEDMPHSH

[7] = Half life in liver microsomes; assay type: ADME, Microsome
[8] = Half life in hepatocytes; assay type: ADME, cell-based, Hepatocyte
[9] = target: T2, Protein deacetylase HDAC6 (Mus musculus); test: Inhibition of HDAC6 in mouse Neuro2a cells assessed as fold increase in ratio of acetylated alpha-tubulin to alpha tubulin at 0.01 uM incubated for overnight by Western blot analysis; assay type: cell-based; conditions: time 12.0 hrs
Histone deacetylase 2 = Histone deacetylase 2 (Homo sapiens, UniProt Q92769); test: Inhibition of recombinant human HDAC2 using Ac-GAK(Ac)-AMC as substrate preincubated for 10 mins followed by substrate addition and measured after 30 mins by fluorescence-based assay
Histone deacetylase 3 = Histone deacetylase 3 (Homo sapiens, UniProt O15379); test: Inhibition of recombinant human HDAC3 using Ac-GAK(Ac)-AMC as substrate preincubated for 10 mins followed by substrate addition and measured after 30 mins by fluorescence-based assay
Histone deacetylase 4 = Histone deacetylase 4 (Homo sapiens, UniProt P56524); test: Inhibition of recombinant human HDAC4 using Boc-Lys(TFA)-AMC as substrate preincubated for 10 mins followed by substrate addition and measured after 30 mins by fluorescence-based assay
Histone deacetylase 5 = Histone deacetylase 5 (Homo sapiens, UniProt Q9UQL6); test: Inhibition of recombinant human HDAC5 using Boc-Lys(TFA)-AMC as substrate preincubated for 10 mins followed by substrate addition and measured after 30 mins by fluorescence-based assay
Histone deacetylase 9 = Histone deacetylase 9 (Homo sapiens, UniProt Q9UKV0); test: Inhibition of recombinant human HDAC9 using Boc-Lys(TFA)-AMC as substrate preincubated for 10 mins followed by substrate addition and measured after 30 mins by fluorescence-based assay
[10] = target: T2, Protein deacetylase HDAC6 (Mus musculus); test: In vivo inhibition of HDAC6 in wild type mouse assessed as increase in alpha-tubulin acetylation in sciatic nerve tissue at 20 mg/kg, ip administered for 12 hrs by immunoblot analysis relative to control; assay type: functional, organism-based; set-up: scale not given: the % may be the effect or the level left
Histone deacetylase 8 = target: T3, Histone deacetylase 8 (Homo sapiens, UniProt Q9BY41)
T3 sequence (Q9BY41 whole entry): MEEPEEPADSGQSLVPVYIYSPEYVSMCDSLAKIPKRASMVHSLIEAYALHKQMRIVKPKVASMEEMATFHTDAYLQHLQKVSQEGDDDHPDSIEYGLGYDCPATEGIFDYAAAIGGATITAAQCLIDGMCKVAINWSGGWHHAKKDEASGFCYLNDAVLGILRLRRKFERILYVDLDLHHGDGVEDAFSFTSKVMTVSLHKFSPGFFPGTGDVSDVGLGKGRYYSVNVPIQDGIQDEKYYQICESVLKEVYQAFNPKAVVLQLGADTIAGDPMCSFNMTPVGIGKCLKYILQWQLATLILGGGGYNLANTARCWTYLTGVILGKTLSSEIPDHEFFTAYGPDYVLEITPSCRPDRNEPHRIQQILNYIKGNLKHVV
Description: Inhibition of recombinant human HDAC8 using Boc-Lys(TFA)-AMC as substrate preincubated for 10 mins followed by substrate addition and measured after 30 mins by fluorescence-based assay

Histone deacetylase 7 = target: T4, Histone deacetylase 7 (Homo sapiens, UniProt Q8WUI4)
T4 sequence (Q8WUI4 whole entry): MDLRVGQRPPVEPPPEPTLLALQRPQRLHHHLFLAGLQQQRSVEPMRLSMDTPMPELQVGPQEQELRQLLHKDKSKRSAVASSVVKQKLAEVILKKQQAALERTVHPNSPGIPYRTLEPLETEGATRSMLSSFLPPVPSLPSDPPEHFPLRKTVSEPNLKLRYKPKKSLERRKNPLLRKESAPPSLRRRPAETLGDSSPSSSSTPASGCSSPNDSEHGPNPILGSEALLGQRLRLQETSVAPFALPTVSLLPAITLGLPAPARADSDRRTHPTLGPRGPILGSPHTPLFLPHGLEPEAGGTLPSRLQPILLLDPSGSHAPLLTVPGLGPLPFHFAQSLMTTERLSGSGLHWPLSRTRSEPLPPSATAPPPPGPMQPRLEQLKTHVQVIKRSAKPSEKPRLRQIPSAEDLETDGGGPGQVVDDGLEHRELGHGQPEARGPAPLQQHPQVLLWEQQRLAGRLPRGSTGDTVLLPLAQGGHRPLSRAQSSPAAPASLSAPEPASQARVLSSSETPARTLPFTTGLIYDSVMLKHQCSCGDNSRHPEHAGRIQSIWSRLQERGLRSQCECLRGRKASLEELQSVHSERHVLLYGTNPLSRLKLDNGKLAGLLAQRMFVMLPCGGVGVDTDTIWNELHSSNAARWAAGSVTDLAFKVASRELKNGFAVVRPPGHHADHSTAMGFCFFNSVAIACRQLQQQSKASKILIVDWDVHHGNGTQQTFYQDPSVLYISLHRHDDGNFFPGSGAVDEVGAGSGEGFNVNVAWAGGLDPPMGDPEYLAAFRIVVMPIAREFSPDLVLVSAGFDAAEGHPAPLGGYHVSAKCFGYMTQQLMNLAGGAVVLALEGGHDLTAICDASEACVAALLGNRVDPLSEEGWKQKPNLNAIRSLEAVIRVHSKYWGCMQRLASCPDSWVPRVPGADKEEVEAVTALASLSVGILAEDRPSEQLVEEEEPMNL
Description: Inhibition of recombinant human HDAC7 using Boc-Lys(TFA)-AMC as substrate preincubated for 10 mins followed by substrate addition and measured after 30 mins by fluorescence-based assay

Sequence of Histone deacetylase 4 (P56524 whole entry): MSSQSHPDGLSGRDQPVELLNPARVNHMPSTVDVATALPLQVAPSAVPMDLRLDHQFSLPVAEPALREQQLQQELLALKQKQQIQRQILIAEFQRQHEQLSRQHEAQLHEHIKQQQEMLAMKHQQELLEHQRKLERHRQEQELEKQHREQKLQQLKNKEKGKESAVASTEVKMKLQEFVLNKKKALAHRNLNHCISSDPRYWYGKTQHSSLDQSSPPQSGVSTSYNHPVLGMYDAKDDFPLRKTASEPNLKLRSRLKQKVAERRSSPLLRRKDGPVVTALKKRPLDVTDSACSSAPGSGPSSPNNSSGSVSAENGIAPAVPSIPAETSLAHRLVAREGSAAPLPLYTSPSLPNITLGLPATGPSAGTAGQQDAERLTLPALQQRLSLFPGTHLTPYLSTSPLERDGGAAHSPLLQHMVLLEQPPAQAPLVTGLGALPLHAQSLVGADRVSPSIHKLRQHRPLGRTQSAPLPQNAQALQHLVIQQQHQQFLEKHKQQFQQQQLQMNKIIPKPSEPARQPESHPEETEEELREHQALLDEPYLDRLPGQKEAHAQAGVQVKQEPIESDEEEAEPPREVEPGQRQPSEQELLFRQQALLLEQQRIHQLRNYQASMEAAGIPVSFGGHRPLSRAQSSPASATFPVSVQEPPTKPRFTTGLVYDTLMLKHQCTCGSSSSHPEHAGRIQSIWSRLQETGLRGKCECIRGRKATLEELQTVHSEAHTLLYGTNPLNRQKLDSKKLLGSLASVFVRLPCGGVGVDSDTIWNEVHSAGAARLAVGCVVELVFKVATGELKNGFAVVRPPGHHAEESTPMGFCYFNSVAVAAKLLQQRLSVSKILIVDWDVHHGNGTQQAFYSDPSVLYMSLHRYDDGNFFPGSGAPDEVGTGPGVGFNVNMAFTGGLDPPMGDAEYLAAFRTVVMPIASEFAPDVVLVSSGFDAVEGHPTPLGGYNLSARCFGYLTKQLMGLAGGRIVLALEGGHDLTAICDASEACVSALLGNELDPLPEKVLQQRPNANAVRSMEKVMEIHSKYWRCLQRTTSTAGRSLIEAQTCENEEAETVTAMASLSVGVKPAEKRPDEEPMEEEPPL
Sequence of Histone deacetylase 5 (Q9UQL6 whole entry): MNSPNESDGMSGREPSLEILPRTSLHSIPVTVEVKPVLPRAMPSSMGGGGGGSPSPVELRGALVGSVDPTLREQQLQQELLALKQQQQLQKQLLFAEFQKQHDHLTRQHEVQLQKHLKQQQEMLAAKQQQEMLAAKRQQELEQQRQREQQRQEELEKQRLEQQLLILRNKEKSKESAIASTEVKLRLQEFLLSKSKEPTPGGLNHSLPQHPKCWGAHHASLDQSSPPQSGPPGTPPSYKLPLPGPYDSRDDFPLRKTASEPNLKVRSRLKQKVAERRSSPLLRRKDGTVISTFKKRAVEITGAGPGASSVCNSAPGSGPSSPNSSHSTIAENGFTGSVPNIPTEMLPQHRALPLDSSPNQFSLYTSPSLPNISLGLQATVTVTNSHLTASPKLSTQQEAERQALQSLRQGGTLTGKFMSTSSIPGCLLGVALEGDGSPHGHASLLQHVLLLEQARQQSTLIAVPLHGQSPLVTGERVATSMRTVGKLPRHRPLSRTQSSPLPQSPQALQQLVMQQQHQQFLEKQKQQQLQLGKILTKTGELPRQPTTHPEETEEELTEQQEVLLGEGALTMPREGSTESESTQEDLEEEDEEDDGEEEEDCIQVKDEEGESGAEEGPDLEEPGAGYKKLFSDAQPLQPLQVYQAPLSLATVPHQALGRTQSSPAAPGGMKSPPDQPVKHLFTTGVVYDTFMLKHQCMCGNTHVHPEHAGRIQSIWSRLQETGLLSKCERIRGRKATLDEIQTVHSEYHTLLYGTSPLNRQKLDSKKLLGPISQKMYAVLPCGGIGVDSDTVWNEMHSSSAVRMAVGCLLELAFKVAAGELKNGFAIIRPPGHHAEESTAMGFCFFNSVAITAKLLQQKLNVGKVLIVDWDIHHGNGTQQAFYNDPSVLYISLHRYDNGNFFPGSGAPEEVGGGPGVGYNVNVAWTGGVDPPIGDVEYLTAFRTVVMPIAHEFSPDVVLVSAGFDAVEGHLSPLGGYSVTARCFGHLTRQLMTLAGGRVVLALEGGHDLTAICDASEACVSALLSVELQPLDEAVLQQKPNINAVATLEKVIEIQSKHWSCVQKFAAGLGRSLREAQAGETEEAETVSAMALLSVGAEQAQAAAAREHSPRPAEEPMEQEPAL
Sequence of Histone deacetylase 1 (Q13547 whole entry): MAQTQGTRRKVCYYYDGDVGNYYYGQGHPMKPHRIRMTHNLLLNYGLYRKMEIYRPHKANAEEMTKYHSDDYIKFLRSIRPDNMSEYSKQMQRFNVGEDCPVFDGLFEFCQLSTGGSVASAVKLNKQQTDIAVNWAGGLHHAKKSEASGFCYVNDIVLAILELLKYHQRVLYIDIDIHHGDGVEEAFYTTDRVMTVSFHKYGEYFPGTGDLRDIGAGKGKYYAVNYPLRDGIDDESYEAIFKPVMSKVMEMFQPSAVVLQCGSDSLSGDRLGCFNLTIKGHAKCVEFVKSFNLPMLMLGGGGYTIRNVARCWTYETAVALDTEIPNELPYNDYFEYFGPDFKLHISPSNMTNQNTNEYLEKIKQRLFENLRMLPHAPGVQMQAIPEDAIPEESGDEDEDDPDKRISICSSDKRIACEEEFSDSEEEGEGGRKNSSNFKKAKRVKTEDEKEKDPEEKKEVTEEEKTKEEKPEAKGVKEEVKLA
Sequence of Histone deacetylase 2 (Q92769 whole entry): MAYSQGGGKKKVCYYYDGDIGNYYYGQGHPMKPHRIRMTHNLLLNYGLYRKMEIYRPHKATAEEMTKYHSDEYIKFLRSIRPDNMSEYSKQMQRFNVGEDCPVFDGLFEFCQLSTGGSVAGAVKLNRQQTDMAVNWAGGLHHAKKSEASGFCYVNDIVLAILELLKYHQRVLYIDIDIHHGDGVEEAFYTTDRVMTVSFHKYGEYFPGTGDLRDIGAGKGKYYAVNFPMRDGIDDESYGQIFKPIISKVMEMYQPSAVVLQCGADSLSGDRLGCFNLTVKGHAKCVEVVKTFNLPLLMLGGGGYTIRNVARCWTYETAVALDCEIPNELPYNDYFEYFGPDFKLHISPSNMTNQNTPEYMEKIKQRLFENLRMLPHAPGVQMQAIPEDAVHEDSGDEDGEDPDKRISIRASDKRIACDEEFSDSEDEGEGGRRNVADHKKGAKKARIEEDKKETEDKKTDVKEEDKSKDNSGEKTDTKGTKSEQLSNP
Sequence of Histone deacetylase 3 (O15379 whole entry): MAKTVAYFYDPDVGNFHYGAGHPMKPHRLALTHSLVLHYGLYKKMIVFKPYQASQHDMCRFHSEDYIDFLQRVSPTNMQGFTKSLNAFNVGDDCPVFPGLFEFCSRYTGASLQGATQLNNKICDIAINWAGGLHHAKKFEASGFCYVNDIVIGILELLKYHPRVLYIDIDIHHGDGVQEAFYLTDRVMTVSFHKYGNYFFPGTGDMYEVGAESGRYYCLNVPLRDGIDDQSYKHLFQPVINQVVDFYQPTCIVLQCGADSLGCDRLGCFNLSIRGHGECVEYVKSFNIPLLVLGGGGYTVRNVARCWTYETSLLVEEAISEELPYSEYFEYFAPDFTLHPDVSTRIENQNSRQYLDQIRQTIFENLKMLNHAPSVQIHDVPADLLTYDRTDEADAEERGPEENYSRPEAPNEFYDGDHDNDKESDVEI
Sequence of Histone deacetylase 9 (Q9UKV0 whole entry): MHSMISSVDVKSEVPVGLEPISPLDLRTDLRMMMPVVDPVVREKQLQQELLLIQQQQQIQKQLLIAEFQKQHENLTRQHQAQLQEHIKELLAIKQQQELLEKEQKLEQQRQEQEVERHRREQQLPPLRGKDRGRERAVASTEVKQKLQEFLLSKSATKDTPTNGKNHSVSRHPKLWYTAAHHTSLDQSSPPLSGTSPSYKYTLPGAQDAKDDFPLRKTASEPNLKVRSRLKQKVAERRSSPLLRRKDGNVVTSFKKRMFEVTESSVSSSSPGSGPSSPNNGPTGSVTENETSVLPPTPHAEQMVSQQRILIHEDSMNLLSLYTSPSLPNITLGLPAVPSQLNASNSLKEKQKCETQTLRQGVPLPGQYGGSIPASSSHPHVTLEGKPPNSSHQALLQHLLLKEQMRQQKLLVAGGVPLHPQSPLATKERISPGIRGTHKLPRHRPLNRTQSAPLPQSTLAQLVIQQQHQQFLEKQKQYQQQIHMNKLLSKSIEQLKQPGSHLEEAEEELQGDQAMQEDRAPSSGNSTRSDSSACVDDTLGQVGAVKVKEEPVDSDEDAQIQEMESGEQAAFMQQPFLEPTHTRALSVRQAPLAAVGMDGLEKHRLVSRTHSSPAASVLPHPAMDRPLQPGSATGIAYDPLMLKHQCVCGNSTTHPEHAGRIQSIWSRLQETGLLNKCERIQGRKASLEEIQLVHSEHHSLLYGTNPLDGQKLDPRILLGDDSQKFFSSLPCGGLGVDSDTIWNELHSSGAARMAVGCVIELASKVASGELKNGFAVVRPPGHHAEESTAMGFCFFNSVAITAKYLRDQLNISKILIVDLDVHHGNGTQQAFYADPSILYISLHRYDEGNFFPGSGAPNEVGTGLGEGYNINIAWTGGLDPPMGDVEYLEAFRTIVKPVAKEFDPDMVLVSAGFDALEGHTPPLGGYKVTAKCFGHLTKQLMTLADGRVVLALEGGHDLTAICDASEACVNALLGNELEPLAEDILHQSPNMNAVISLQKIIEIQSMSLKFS

O=C(NO)c1ccc(CN2CCCc3ccccc32)cc1
IC50 (Histone deacetylase 1): 15 nM | Ratio IC50 (Homo sapiens): 733 | remaining at 1 h [1]: 34.1% | half-life [2]: 40.4 min | remaining at 1 h ([3]; pooled liver microsomes, read-out: Stabilty): 73% | half-life ([4]; pooled liver microsomes): 182 min | IC50 [5]: 11000 nM

O=C(NO)c1ccc(CN2CCCc3cc(Cl)ccc32)cc1
fold change (FC) [6]: 1 | half-life [7]: < 30 min | half-life [8]: < 30 min | fold change (FC) [9]: 1 | remaining at 1 h [1]: 27.3% | half-life [2]: 31.9 min | Stabilty ([3]; microsomes, 1 h): 42.6% | t1/2 ([4]; microsomes, 1 h): 483 min | IC50 (Histone deacetylase 2): 282 nM | IC50 (Histone deacetylase 3): 1270 nM | IC50 (Histone deacetylase 4): 2140 nM | IC50 (Histone deacetylase 5): 1480 nM | IC50 (Histone deacetylase 9): 3400 nM | Activity [10]: 125% | IC50 (Histone deacetylase 8): 3060 nM | IC50 (Histone deacetylase 7): 511 nM
